Marks after values point to notes of the source that are not given here.
Legend:
[1] = Plasma pharmacokinetics of capivasertib and its glucuronide metabolite; format: in vivo, human; conditions: for Ctrough cycle 1, day 13: 12 h post day 12 capivasertib evening dose; for Ctrough cycle 1, day 9: after 3 off-capivasertib-dosing days; for tmax: median (range)
advanced solid tumors = test: Exploratory efficacy (RECIST 1.1, investigator assessment); format: in vivo, human; conditions: capivasertib 400 mg BID 4 days on/3 days off
Method: Efficacy was evaluated as an exploratory endpoint by investigator assessment, and per Response Evaluation Criteria in Solid Tumors (RECIST) version 1.1. Tumor assessments were performed by CT and/or MRI scans at screening and then every 8 weeks (± 7 days; earlier if clinically indicated) for 2 years, and then every 12 weeks until disease progression. Radiographic bone scans were performed at screening and repeated as clinically indicated, depending on tumor type.
Safety analyses were performed on the full analysis set, which consisted of all patients who received at least one dose of midazolam and/or capivasertib, irrespective of protocol adherence or continued participation in the study. Efficacy analyses were also performed on the full analysis set. Summary and/or descriptive statistics were used to analyze baseline demographic, safety, and efficacy data; PFS and DoR were estimated using Kaplan–Meier methodology.

[2] = geometric mean (gCV%), listed as Capivasertib

Structure (SMILES): NC1(C(=O)N[C@@H](CCO)c2ccc(Cl)cc2)CCN(c2nc[nH]c3nccc2-3)CC1 [capivasertib]
- AUCτ ([1]; geometric mean (gCV%), 12-h dosing interval, day 12 of cycle 1, capivasertib 400 mg BID): 8499 ng·h/mL
- Ctrough cycle 1, day 13 ([1]; geometric mean (gCV%)): 281.5 ng/mL
- Ctrough cycle 1, day 13 [1, 2]: 281.5^f (53.3) ng/mL
- Ctrough cycle 1, day 9 ([1]; geometric mean (gCV%)): 10.96 ng/mL
- Ctrough cycle 1, day 9 [1, 2]: 10.96^e (137.0) ng/mL
- Cmax ([1]; geometric mean (gCV%), day 12 of cycle 1, 4th day on capivasertib 400 mg BID, with single oral midazolam 1 mg): 1779 ng/mL
- t½λz ([1]; geometric mean (gCV%), day 12 of cycle 1, capivasertib 400 mg BID): 3.76 h
- CL/F ([1]; geometric mean (gCV%), day 12 of cycle 1, capivasertib 400 mg BID oral): 46.4 L/h
- tmax ([1]; day 12 of cycle 1, capivasertib 400 mg BID): 1.5 h
- tmax ([1]; day 12 of cycle 1, capivasertib 400 mg BID, listed as Capivasertib): 1.48^a (0.6–5.5) h
- Median DoR (95% CI) (advanced solid tumors): 3.8 months
- patients with confirmed partial response to treatment (advanced solid tumors): Two
- CBR (95% CI) at 24 weeks (advanced solid tumors; full analysis set): 14.3%
- ORR (95% CI) (advanced solid tumors; full analysis set): 9.5%
- median PFS (95% CI) (advanced solid tumors; full analysis set, 15 PFS events): 3.4 months

Source: paper PMC11390765 (Cancer Chemotherapy and Pharmacology, 2024)
